Measurements from patent US20250084063A1 (Incyte Corporation, priority 2023, published 2025).
pIC50: −log10 of the molar value.

Experiments:
Format in all cases: cell-based
MRGPRX2 [1] = molecular target: T1, MRGPRX2 (Homo sapiens, UniProt Q96LB1); experiment: MRGPRX2 β-Arrestin assay; design: host or cells: PathHunter CHO-K1; conditions: PathHunter CHO-K1 MRGPRX2 β-Arrestin cell line; agonist Cortistatin 14 0.25 μM
T1 sequence (Q96LB1 1-330): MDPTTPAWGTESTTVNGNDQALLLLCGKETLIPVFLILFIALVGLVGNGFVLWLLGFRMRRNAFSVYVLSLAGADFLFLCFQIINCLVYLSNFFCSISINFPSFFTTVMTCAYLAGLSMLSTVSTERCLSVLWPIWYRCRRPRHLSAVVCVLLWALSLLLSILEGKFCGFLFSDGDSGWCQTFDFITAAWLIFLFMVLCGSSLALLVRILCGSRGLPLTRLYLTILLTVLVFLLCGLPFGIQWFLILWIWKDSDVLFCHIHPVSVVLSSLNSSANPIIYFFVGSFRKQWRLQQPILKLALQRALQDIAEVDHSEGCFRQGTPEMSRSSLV
Outline: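 PathHunter CHO-K1 cells expressing ProLink-tagged MRGPRX2 and enzyme-acceptor-tagged β-arrestin were preincubated with serially diluted compound 1 h at 37 °C, then stimulated with 0.25 μM cortistatin 14 (final) for 90 min. β-arrestin recruitment was read by luminescence; IC50 from 3- or 4-parameter Hill fits normalised to DMSO and reference antagonist controls.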

MRGPRX2 [2] = molecular target: T1, MRGPRX2; experiment: MRGPRX2 FLIPR calcium mobilization assay; design: host or cells: CHO-K1; conditions: CHO-K1 cells stably expressing human MRGPRX2; Ca2+ release, agonist Cortistatin-14 at EC80
Outline: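 CHO-K1 cells stably expressing human MRGPRX2, loaded with Calcium 6 dye, pre-incubated 30 min at room temperature with test compound in HBSS/20 mM HEPES pH 7.4. Then challenged with Cortistatin-14 at EC80; baseline-adjusted peak fluorescence over 110 s fitted to a Hill equation for IC50.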

MRGPRX2 [3] = molecular target: T1, MRGPRX2; experiment: MRGPRX2 IP1 HTRF assay; design: host or cells: CHO-K1; conditions: CHO-K1 cells stably expressing human MRGPRX2; IP1 accumulation, agonist Cortistatin 14 1 μM

pIC50 (MRGPRX2 [1]) | pIC50 (MRGPRX2 [2]) | pIC50 (MRGPRX2 [3]) | Compound
7.00 to 10.00 | 7.00 to 10.00 | 6.00 to 7.00 | Cn1ncc2ccc(C3(CNc4cc(C(F)(F)F)nc5ccc(Cl)cc45)CN(S(N)(=O)=O)C3)cc21 [Example 84, 3-(((6-Chloro-2-(trifluoromethyl)quinolin-4-yl)amino)methyl)-3-(1-methyl-1H-indazol-6-yl)azetidine-1-sulfonamide]
7.00 to 10.00 | 7.00 to 10.00 | 7.00 to 10.00 | CNC(=O)N1CC(CNc2cc(C(F)(F)F)nc3ccc(Cl)cc23)(n2cc(Cl)cn2)C1 [Example 98, 3-(4-Chloro-1H-pyrazol-1-yl)-3-(((6-chloro-2-(trifluoromethyl)quinolin-4-yl)amino)methyl)-N-methylazetidine-1-carboxamide]
7.00 to 10.00 | 7.00 to 10.00 | 7.00 to 10.00 | CNC(=O)N1CC(CNc2cc(C(F)(F)F)nc3ccc(Cl)cc23)(n2cc(Br)cn2)C1 [Example 99, 3-(4-Bromo-1H-pyrazol-1-yl)-3-(((6-chloro-2-(trifluoromethyl)quinolin-4-yl)amino)methyl)-N-methylazetidine-1-carboxamide]
7.00 to 10.00 | 7.00 to 10.00 | 7.00 to 10.00 | O=C(NC1CC(O)C1)N1CC(CNc2cc(C(F)(F)F)nc3ccc(Cl)cc23)(n2cc(F)cn2)C1 (stereo not drawn) [Example 106, 3-(((6-Chloro-2-(trifluoromethyl)quinolin-4-yl)amino)methyl)-3-(4-fluoro-1H-pyrazol-1-yl)-N-(3-hydroxycyclobutyl)azetidine-1-carboxamide]
7.00 to 10.00 | 7.00 to 10.00 | 7.00 to 10.00 | O=C(NC1CCC1)N1CC(CNc2cc(C(F)(F)F)nc3ccc(Cl)cc23)(n2cc(F)cn2)C1 [Example 107, 3-(((6-Chloro-2-(trifluoromethyl)quinolin-4-yl)amino)methyl)-N-cyclobutyl-3-(4-fluoro-1H-pyrazol-1-yl)azetidine-1-carboxamide]
7.00 to 10.00 | 7.00 to 10.00 | 7.00 to 10.00 | O=C1NC(=O)C2(CC(CNc3cc(C(F)(F)F)nc4ccc(Cl)cc34)(c3ccccc3)C2)N1 (stereo not drawn) [Example 108, 2-(((6-Chloro-2-(trifluoromethyl)quinolin-4-yl)amino)methyl)-2-phenyl-5,7-diazaspiro[3.4]octane-6,8-dione]
7.00 to 10.00 | 7.00 to 10.00 | 7.00 to 10.00 | [2H]C([2H])([2H])NC(=O)N1CC(CNc2cc(C(F)(F)F)nc3ccc(Cl)cc23)(n2ccc(F)n2)C1 [Example 109, 3-(((6-Chloro-2-(trifluoromethyl)quinolin-4-yl)amino)methyl)-3-(3-fluoro-1H-pyrazol-1-yl)-N-(methyl-d3)azetidine-1-carboxamide]
